Data on 8 compounds can be found in patent US20020198161A1, “THERAPEUTIC USES OF ANTIOXIDANTS” (priority 1997, published 2002).

Series [1] deals with tMEF p53+/+ cells. Briefly: Apoptosis / viability in E1A/Ha-ras-transformed MEF (tMEF p53+/+). In kind it is cell-based, mouse. Particulars: for effect on cell viability (trypan blue exclusion) / apoptosis (DNA analysis): p53+/+ tMEF; for effect on cell viability (trypan blue exclusion): 48 h, tocopherol acetate 200 μM, Trolox 200 μM, BHA 100 μM; for apoptosis (DNA analysis): chain-breaking antioxidants; for apoptosis in E1A/Ha-ras transformed cells (viability, DNA fragmentation, flow cytometry): 50 μM DMP, 20 mM OTC, 24-48 h. The protocol: Cell Lines. MEF primary mouse embryo fibroblast cells (passage <5) and E1A/Ha-ras-transformed MEF were as in Lowe (18). […] The (Rostein, J. B. et al., 1988, Mutation Research 202:421-427) 1 mouse embryo fibroblast cell line was as in Levine (Harney, D. M. et al., 1991, Genes Dev. 5:2375-2385). BALB/c 3T3 A31 cells were obtained from the American Type Culture Collection (Bethesda, Md.). 308 papilloma cells were maintained in 0.05 mM Ca2+ EMEM medium with 10% fetal bovine serum, and all other cells were grown in DMEM medium with 10% heat-inactivated fetal bovine serum. Cell culture confluence was maintained below 80%.
(§1) Chemicals and Cell Treatments. All chemicals were obtained from Sigma, except for Trolox which was purchased from Aldrich. These compounds were freshly dissolved in medium and adjusted to neutral pH if necessary, or (for vitamin E acetate, Trolox, and BHA) first dissolved in ethanol and added to the medium. Cell viability was determined by trypan blue exclusion as a measure of cell death independent of any growth suppression by p53.
(§2) Apoptosis Assays. For fixed cells, apoptosis-associated DNA strand breaks were visualized by fluorescent in situ end-labeling as previously described (Ziegler, A. et al., 1994, Nature 372:773-776). For isolated DNA, DNA fragmentation analysis was performed (Lowe, S. W. et al., 1993, Cell 74:957-967).
(§3) For flow cytometry analysis, approximately 10^6 cells per sample were washed with ice-cold PBS and fixed in 95% ethanol. Cells were then resuspended in 1 mg/ml RNase (Sigma) for 30 min at 37° C. and stained with 0.05 mg/ml propidium iodide (Sigma) for 1 h on ice. Flow cytometric analysis was performed with a FACS Vantage flow cytometer (Becton-Dickinson). Cells were excited at 488 nm and the emission was detected through a 630/22 nm band pass filter. A minimum of 10,000 cells were analyzed for each sample. Cell cycle analysis was performed using the Modfit 5.2 software (Verity Software House). […] Cellular debris was gated out using the electronic threshold.
Background: A flow cytometer gives signals particle by particle.

The next series deals with MEF p53+/+ cells. The series can be described thus: Apoptosis / viability in normal primary MEF (MEF p53+/+). In kind it is cell-based, mouse. Particulars: for apoptosis in normal counterparts: normal MEF, 50 μM DMP, 20 mM OTC.
Excerpt: (§4) Cell Lines. MEF primary mouse embryo fibroblast cells (passage <5) and E1A/Ha-ras-transformed MEF were as in Lowe (18). The 308 papilloma cell line, which has a mutant Ha-ras allele (Strickland, J. E. et al., 1988, Cancer Res. 48) and wild-type p53 (Liu, M. et al., 1995, Oncogene 10:1955-1960) were also utilized. The (Rostein, J. B. et al., 1988, Mutation Research 202:421-427) 1 mouse embryo fibroblast cell line was as in Levine (Harney, D. M. et al., 1991, Genes Dev. 5:2375-2385). BALB/c 3T3 A31 cells were obtained from the American Type Culture Collection (Bethesda, Md.). 308 papilloma cells were maintained in 0.05 mM Ca2+ EMEM medium with 10% fetal bovine serum, and all other cells were grown in DMEM medium with 10% heat-inactivated fetal bovine serum. Cell culture confluence was maintained below 80%.
as §1, §2, §3

In series [2] the test system is p53-/- tMEF and MEF cells. The series can be described thus: Apoptosis / viability in transformed and normal primary cells from p53-/- null mice. In kind it is cell-based, mouse. To be noted: for p53 requirement of apoptosis induction: p53-/- versus p53+/+ transformed MEF.
Excerpt: as §4, §1, §2

Series [3] concerns p53+/+ colorectal carcinoma cell line RKO. The series can be described thus: Apoptosis in colorectal carcinoma cell line RKO. Particulars: human p53+/+ RKO cells. It is filed as cell-based. The protocol:
as §2

For series [4], the system named is 308 papilloma cells. The series can be described thus: Cell viability by trypan blue exclusion in 308 papilloma cells. In kind it is cell-based, murine. Particulars: NAC dose range.
Excerpt: as §4, §1

For series [5], the system named is 308 papilloma cells. Briefly: Apoptosis-associated DNA strand breaks, fluorescent in situ end-labeling, 308 cells. In kind it is cell-based, murine. To be noted: 20 mM NAC, 24 h.
Excerpt: as §4, §2

The subject of series [6] is p53 protein. The series can be described thus: p53 protein level in 308 cells (Western blot). In kind it is cell-based, murine. Particulars: dose-dependent, within 3 to 8 hours.
Excerpt: as §4
(§5) Northern and Western Blot Analysis. Northern and Western blot analysis were performed as previously described (Liu, M. et al., 1995, Oncogene 10:1955-1960).

Another series deals with p53 mRNA. Briefly: p53 mRNA steady-state level in 308 cells (Northern blot). It is filed as cell-based, murine. Particulars: 20 mM NAC, 5 h.
Excerpt: as §4, §5

Series [7] relates to p53 protein. Briefly: p53 protein synthesis rate in 308 cells (35S-methionine labeling). It is filed as cell-based, murine. Particulars: 20 mM NAC, 5 h post-treatment. Here is the method: Analysis of p53 Protein Synthesis. Cultures of 308 cells were treated in the absence or presence of 20 mM NAC. At 4.5 h post-treatment, cells were incubated with methionine-free medium containing 2% dialyzed and chelexed fetal bovine serum for 0.5 h. At 5 h post-treatment, biosynthetic labeling was initiated by adding 200 μCi of ^35S-methionine per ml of methionine-free medium. The labeling was terminated at 5, 10, or 15 min. Throughout the experiment, 20 mM NAC was included in the group of NAC-treated cells. Cells were then washed twice with 10 ml of ice-cold PBS, scraped, and pelleted by centrifugation at 1500 rpm at 4° C. for 5 min. The supernatant was removed, and the cell pellet was lysed in ice-cold cell lysis buffer (0.5% Triton X-100, 300 mM NaCl, 50 mM Tris-HCl, pH 7.4, 10 μg/ml leupeptin, 0.1 mM phenylmethylsulfonyl fluoride). Aliquots of cell lysate containing equal amounts of protein (30 μg) were subjected to immunoprecipitation analysis with anti-p53 antibody PAb122 (25) and Protein A-agarose (GIBCO-BRL). The immunoprecipitated proteins were resolved on a 10% SDS-PAGE gel. The levels of synthesized p53 protein were then determined by densitometric scanning using a Hewlett-Packard ScanJet 4P Scanner and the NIH image 1.59 analysis software.

A further series has as its system p53. The series can be described thus: p53 induction in BALB/c 3T3 A31 fibroblast cell line. Particulars: BALB/c 3T3 A31 cells. In kind it is cell-based, murine.
Excerpt: as §4, §5

Series [8] concerns p53 protein. Briefly: p53 induction in normal MEF p53+/+ cells (immunohistochemical staining). To be noted: 20 mM NAC, 5 h. In kind it is cell-based, mouse. Here is the method: FIGS. 2A-2C. p53-dependent apoptosis by NAC is selective for transformed cells. FIG. 2A: viability of normal (MEF) and transformed (tMEF) cells measured by trypan blue exclusion after treatment with NAC for 24 h. FIG. 2B: analysis of DNA fragmentation from tMEF cells exposed to NAC. FIG. 2C: immunohistochemical staining of p53 protein in p53+/+ MEF cells after 5 h exposure to 20 mM NAC.
as §4

Another series relates to DNA. To be noted: literature references; cited from earlier work.
Series [9] deals with tMEF p53+/+ cells. The series can be described thus: GSH and total thiols in tMEF p53+/+ cells (GSH-400 kit). In kind it is cell-based, mouse. To be noted: 20 μM BSO 1 h preincubation then 20 μM BSO + 20 mM NAC 5 h. Here is the method: FIG. 6. Analysis of GSH, total thiols, and viability in tMEF p53+/+ cells treated with BSO and/or NAC. Cells treated with both compounds were preincubated with medium containing 20 μM BSO for 1 h and then treated with medium containing 20 μM BSO and 20 mM NAC for 5 h (GSH and thiols) or for 24 h (viability).
Measurement of GSH and Total Thiols. Cells (4×106) were harvested from each sample. The GSH-400 kit (R & D Systems) was used following the manufacturer's instructions.

Each structure is given as a SMILES string. Entries after “also recorded” stand apart in the source; their conditions may differ. A value given as a limit tells only on which side of the number the result lay.

Turning to `Cc1c(C)c2c(c(C)c1O)CCC(C)(C(=O)O)O2` (centres unmarked) [Trolox], in the series on tMEF p53+/+ cells [1], the “effect on cell viability (trypan blue exclusion)” value (“effect on cell viability” for short) was “little effect on cell viability; also recorded: do not induce cell death” and the “apoptosis (DNA analysis)” value is “no apoptosis occurred; also recorded: did not induce p53-dependent apoptosis”.
Turning to `O=C(O)CCCC[C@@H]1CCSS1` (racemic) [lipoic acid], the “apoptosis in E1A/Ha-ras transformed cells (viability, DNA fragmentation, flow cytometry)” value in the series with tMEF p53+/+ cells [1] (transformed MEF) is reported as “behaved similarly”. Besides, the “apoptosis in normal counterparts” value with MEF p53+/+ cells is listed as “behaved similarly”. Also, in series [2], the “p53 requirement of apoptosis induction” value was “required p53”. In [3], the apoptosis induction result is listed as “induced apoptosis”.
On to `CC(=O)N[C@@H](CS)C(=O)O` [NAC, N-acetylcysteine], for which the “cell death (cell viability by trypan blue exclusion)” value with 308 papilloma cells [4] is “dose-dependent cell death”. Further, the “in situ end-labeling of DNA strand-breaks (apoptosis)” value in the series with 308 papilloma cells [5] was “showing in situ end-labeling of DNA strand-breaks”. For the same compound, the “NAC-induced apoptosis (viability, DNA fragmentation)” value in the series on tMEF p53+/+ cells [1] (tMEF p53+/+, NAC 24 h) was “sensitive to NAC-induced apoptosis”. Further, the “NAC-induced apoptosis (viability)” value in the series on MEF p53+/+ cells (normal MEF p53+/+, NAC 24 h) is on record as “strikingly resistant”; in series [2] (transformed and normal primary cells from p53-/- null mice, NAC 24 h) it was “deficient in apoptosis induced by NAC”. Moreover, in the series with p53 protein [6], the “increase of p53 protein levels” value is recorded as 5- to 10 fold. Moreover, the “steady-state level of p53 mRNA vs control” value with p53 mRNA was “no major difference”. Also, in the series on p53 protein [7], the “elevation of biosynthetic rate of p53 protein” value is about 5 fold. Also, the p53 induction result in the series on p53 is listed as “induced p53”; with p53 protein [8], “p53 was induced”. Further, the apoptosis induction result in [3] is reported as “induced apoptosis”. Besides, in the series on DNA, the “induction of DNA damage” value is on record as “does not induce DNA damage”.
For `CC(=O)Oc1c(C)c(C)c2c(c1C)CCC(C)(CCC[C@H](C)CCC[C@H](C)CCCC(C)C)O2` (some centres unmarked) [vitamin E acetate, tocopherol acetate], in the series on tMEF p53+/+ cells [1], the “effect on cell viability” value was “little effect on cell viability” and the “apoptosis (DNA analysis)” value is “no apoptosis occurred; also recorded: did not induce p53-dependent apoptosis”. Further, the “effect on cell viability” value in the series with tMEF p53+/+ cells [1] (listed as tocopherol acetate) is recorded as “do not induce cell death”.
In the case of `OCC(S)CS` (centres unmarked) [DMP, 2,3-dimercaptopropanol], in the series with tMEF p53+/+ cells [1] (transformed MEF), the “doses at which active (apoptosis induction)” value was at least 50 µM and the “apoptosis in E1A/Ha-ras transformed cells (viability, DNA fragmentation, flow cytometry)” value was “selectively induced apoptosis”. The “apoptosis in normal counterparts” value in the series with MEF p53+/+ cells is given as “not in their normal counterparts”. Further, in series [2], the “p53 requirement of apoptosis induction” value is given as “required p53”. Further, the apoptosis induction entry in [3] is recorded as “induced apoptosis”.
As to `CCCCS(=N)(=O)CCC(N)C(=O)O` [BSO, L-buthionine sulfoximine], the “effect on NAC-induced apoptosis (viability)” value in the series on tMEF p53+/+ cells [1] (tMEF p53+/+, 20 μM BSO + 20 mM NAC 24 h) is “did not block NAC-induced apoptosis; also recorded: cannot block NAC-induced apoptosis”. In the series with tMEF p53+/+ cells [9], the “effect on induction of cellular GSH by NAC” value is listed as “completely blocks induction of cellular GSH by NAC; also recorded: inhibits cellular GSH elevation by NAC” and the “effect on induction of total thiols by NAC” value is listed as “only partially blocking the induction of total thiols”.
As for `COc1ccc(O)c(C(C)(C)C)c1` [BHA], in the series with tMEF p53+/+ cells [1], the “effect on cell viability” value is listed as “little effect on cell viability; also recorded: do not induce cell death” and the “apoptosis (DNA analysis)” value is on record as “no apoptosis occurred”.
For the compound `O=C1N[C@H](C(=O)O)CS1` [OTC, L-2-oxo-4-thiazolidinecarboxylate], in the series with tMEF p53+/+ cells [1] (transformed MEF), the “apoptosis in E1A/Ha-ras transformed cells (viability, DNA fragmentation, flow cytometry)” value is “selectively induced apoptosis”. Further, in the series on MEF p53+/+ cells, the “apoptosis in normal counterparts” value is “not in their normal counterparts”. The “p53 requirement of apoptosis induction” value in series [2] is on record as “required p53”. For the same compound, the apoptosis induction result in series [3] is “induced apoptosis”.
